Measurements: US20220023258A1, “METHODS OF TREATING CONDITIONS RELATED TO THE S1P1 RECEPTOR” (Arena Pharmaceuticals, Inc., priority 2018, published 2022)
Entries after “also recorded” stand apart in the source; their conditions may differ. Structures can show the parent of a compound that is named as a salt.

How the values were obtained:
healthy adult subjects = assay: Multiple ascending dose study: heart rate, blood pressure, QTc; assay type: in vivo, human; conditions: Day 1 to Day 28
Experimental: A randomized, double-blind, placebo-controlled, sequential, ascending, multiple dose study to assess the safety, tolerability, and pharmacokinetics of the L-arginine salt of Compound 1 administered to healthy adult subjects was conducted. This study was designed to evaluate the safety, tolerability, pharmacokinetics, and pharmacodynamics of the L-arginine salt of Compound 1.
Cohort 1 was dosed with 0.7 mg (by administering two 0.35 mg formulations) for 21 days. Cohort 2 was dosed with 1.35 mg (by administering both a 0.35 mg formulation and a 1 mg formulation) for 21 days. Cohort 3 was dosed with 2.0 mg for 21 days. Cohort 4 was dosed with 0.35 mg for 7 days and then with 2.0 mg for 14 days. Cohort 5 was dosed with 0.5 for 7 days and then with 3.0 mg (by administering both a 1 mg formulation and a 2 mg formulation) for 14 days.
The following safety assessments were conducted: physical examinations with ophthalmoscopy, clinical laboratory tests (serum chemistry, coagulation, and urinalysis), vital signs, continuous telemetry (12 lead ECG), safety ECGs, pulmonary function testing (PFT), serum protein electrophoresis (SPEP) and serum immunoelectrophoresis (IEP), and adverse event reporting.

[1] = test system: patients with ulcerative colitis; assay: Dose-ranging study in ulcerative colitis: Mayo scores, endoscopic improvement, remission; assay type: in vivo, human; conditions: for improvement in 2-component Mayo Score relative to placebo / improvement in Total Mayo Score relative to placebo: Week 12; for proportion of patients achieving clinical remission, defined by the 3-component Mayo Score / improvement in 3-component Partial Mayo Score relative to placebo / patients who achieved endoscopic improvement: week 12
Excerpt: The treatment formulation was composed of immediate-release, hard gelatin capsules containing L-arginine salt of Compound 1. The placebo was composed of hard gelatin capsules containing microcrystalline cellulose. […] The primary objective of this proof-of-concept study was to determine the effect of treatment with the L-arginine salt of Compound 1 in changing 3-component Mayo Clinic score (score ranging from 0 to 9, including stool frequency, rectal bleeding and findings on endoscopy) at 12 weeks. […] ANCOVA model, adjusted for current oral corticosteroid use, prior exposure to TNF-alpha antagonists, and baseline value, was used to estimate changes in Mayo Clinic Score. Mantel-Haenszel method (estimated treatment difference by adjusting current oral corticosteroid use and prior exposure to TNF-alpha antagonists) used to estimate proportion difference for dichotomous parameters. Missing individual Mayo subscores impacting efficacy measures were imputed using multiple imputation methodology with observed case analysis for sensitivity. […] Hierarchical closed testing procedure for primary and secondary endpoints at 0.05 alpha level was used.

[2] = test system: patients with ulcerative colitis; assay: Dose-ranging study in ulcerative colitis: safety; conditions: for serious adverse events (SAEs): placebo 11.1%;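 as to all read-outs here: Double-blind randomized parallel-group trial versus placebo, with the study drug given orally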
Experimental: Patients were instructed to take their capsule on an empty stomach (overnight fast of approximately 8 hours) and to avoid eating for approximately 1 hour after dosing.

## O=C(O)C[C@H]1CCc2c1[nH]c1ccc(OCc3ccc(C4CCCC4)c(C(F)(F)F)c3)cc21 [L-arginine salt of Compound 1]
Healthy adult subjects; 0.7 mg for 21 days
  Minimum post-dose Diastolic BP, On Treatment Mean (SD): 56.00 (8.31) mmHg
  Minimum post-dose Heart Rate, Change from Baseline Mean: −5.50 BPM
  Minimum post-dose Heart Rate, Change from Baseline Median: −5.00 BPM
  Minimum post-dose Heart Rate, Change from Baseline Min, Max: −12.00 to −1.00 BPM
  Minimum post-dose Heart Rate, On Treatment Mean (SD): 54.20 (4.05) BPM
  Minimum post-dose Systolic BP, Change from Baseline Mean: −9.70 mmHg
  Minimum post-dose Systolic BP, Change from Baseline Median: −9.50 mmHg
  Minimum post-dose Systolic BP, Change from Baseline Min, Max: −16.00 to −1.00 mmHg
  Minimum post-dose Systolic BP, On Treatment Mean: 96.10 mmHg
Healthy adult subjects; 1.35 mg for 21 days
  Minimum post-dose Diastolic BP, Change from Baseline Mean: −5.20 mmHg
  Minimum post-dose Diastolic BP, Change from Baseline Median: −7.50 mmHg
  Minimum post-dose Diastolic BP, Change from Baseline Min, Max: −11.00 to 6.00 mmHg
  Minimum post-dose Diastolic BP, On Treatment Mean (SD): 53.70 (4.03) mmHg
  Minimum post-dose Heart Rate, Change from Baseline Mean: −6.20 BPM
  Minimum post-dose Heart Rate, Change from Baseline Median: −5.00 BPM
  Minimum post-dose Heart Rate, Change from Baseline Min, Max: −18.00 to 3.00 BPM
  Minimum post-dose Heart Rate, On Treatment Mean (SD): 54.40 (4.09) BPM
  Minimum post-dose Systolic BP, Change from Baseline Mean: −8.90 mmHg
  Minimum post-dose Systolic BP, Change from Baseline Median: −8.00 mmHg
  Minimum post-dose Systolic BP, Change from Baseline Min, Max: −22.00 to 3.00 mmHg
  Minimum post-dose Systolic BP, On Treatment Mean: 100.10 mmHg
Healthy adult subjects; 2.0 mg for 21 days
  Minimum post-dose Diastolic BP, Change from Baseline Mean: −11.20 mmHg
  Minimum post-dose Diastolic BP, Change from Baseline Median: −9.00 mmHg
  Minimum post-dose Diastolic BP, Change from Baseline Min, Max: −21.00 to −4.00 mmHg
  Minimum post-dose Diastolic BP, On Treatment Mean (SD): 45.30 (7.42) mmHg
  Minimum post-dose Heart Rate, Change from Baseline Mean: −8.30 BPM
  Minimum post-dose Heart Rate, Change from Baseline Median: −7.50 BPM
  Minimum post-dose Heart Rate, Change from Baseline Min, Max: −16.00 to −3.00 BPM
  Minimum post-dose Heart Rate, On Treatment Mean (SD): 51.00 (4.78) BPM
  Minimum post-dose Systolic BP, Change from Baseline Mean: −9.80 mmHg
  Minimum post-dose Systolic BP, Change from Baseline Median: −9.00 mmHg
  Minimum post-dose Systolic BP, Change from Baseline Min, Max: −18.00 to −4.00 mmHg
  Minimum post-dose Systolic BP, On Treatment Mean: 90.80 mmHg
[1]; 1 mg q.d., p=0.086
  improvement in 2-component Mayo Score relative to placebo: 0.39
[1]; 1 mg q.d., p=0.128
  improvement in Total Mayo Score relative to placebo: 0.60
[1]; 1 mg q.d., p=0.136
  proportion of patients achieving clinical remission, defined by the 3-component Mayo Score: 16.0%
[1]; 1 mg q.d., p=0.146
  improvement in 3-component Partial Mayo Score relative to placebo: 0.43
[1]; 1 mg q.d., p=0.306
  patients who achieved endoscopic improvement: 22.5%
[1]; 1 mg q.d., p=0.077
  Remission defined by the 4-component Total Mayo Score: 15.4%
[1]; 2 mg q.d., p=0.010
  improvement in Total Mayo Score relative to placebo: 1.27
[1]; 2 mg q.d., p<0.001 vs placebo 8.1%
  proportion of patients achieving clinical remission, defined by the 3-component Mayo Score: 33.0%
[1]; 2 mg q.d., p=0.003 vs placebo 17.8%
  patients who achieved endoscopic improvement: 41.8%
[1]; 2 mg q.d., p=0.009
  improvement in 3-component Partial Mayo Score relative to placebo: 0.99
[1]; dose not printed in sentence (high dose), p=0.002
  improvement in 2-component Mayo Score relative to placebo: 0.84
[1]; dose not printed in sentence (high dose), p=0.004 vs placebo 6.0%
  Remission defined by the 4-component Total Mayo Score: 24.5%
[2]; 1 mg (n = 52)
  % of Patients with Serious TEAE: (5.8) %
  % of Patients with TEAE Leading to Discontinuation of Study Drug: (5.8) %
  % of Patients with any TEAE: (59.6) %
  Number of Deaths of Any Reason: 0
  Number of Patients with Serious TEAE: 3
  Number of Patients with TEAE Leading to Discontinuation of Study Drug: 3
  Number of Patients with any TEAE: 31
[2]; 1 mg and 2 mg q.d., 12 weeks
  discontinuations from study related to bradycardia or AV block: no discontinuations from study related to bradycardia or AV block
  liver function tests (LFTs) compared to placebo: no increases in liver function tests
  reports of macular edema or pulmonary function test abnormalities: no reports of macular edema or pulmonary function test abnormalities; also recorded: no reports of macular edema; and no reports of abnormal pulmonary function tests
  serious adverse events related to heart rate changes or AV block: No serious adverse events related to heart rate changes or AV block
  severe or life-threatening infection: No severe or life-threatening infection occurred
  tolerability: well tolerated
[2]; 1 mg q.d.
  serious adverse events (SAEs): 5.8%
[2]; 2 mg (n = 50)
  % of Patients with TEAE Leading to Discontinuation of Study Drug: (8.0) %
  % of Patients with any TEAE: (56.0) %
  Number of Deaths of Any Reason: 0
  Number of Patients with Serious TEAE: 0
  Number of Patients with TEAE Leading to Discontinuation of Study Drug: 4
  Number of Patients with any TEAE: 28
[2]; 2 mg q.d.
  serious adverse events (SAEs): 0%
[2]; Day 1, any time point, both 1 mg and 2 mg groups
  mean change (decrease) in heart rate, hourly ECGs: < 10 bpm
[2]; after Day 1 through 12 weeks, either dose group (1 mg, 2 mg)
  mean decrease in heart rate from baseline: ≤ 6 bpm
